BindingDB's records for doi:10.1016/j.bioorg.2016.10.001 (Jamia Millia Islamia (A Central University), 2016)

Biological target: DNA topoisomerase 2-alpha (Homo sapiens, UniProt P11388)
Experiment: Topoisomerase IIα Relaxation Assay
Details: pH 7.9
Procedure: Relaxation of negatively supercoiled plasmid DNA by human topoisomerase IIα was assayed in 20 µL of reaction buffer (10 mM Tris-HCl, pH 7.9, 150 mM NaCl, 0.1% BSA, 0.1 mM spermidine, 5% glycerol and ATP) containing 250 ng of supercoiledpHOT1 plasmid DNA and 1 unit of enzyme. After incubation at 37 °C for 30 min, the reactions were terminated and analysed by agarose gel electrophoresis. The ethidium bromide-stained gel was photographed over UV light for densitometry analysis.

DNA topoisomerase 2-alpha, sequence (P11388 whole entry): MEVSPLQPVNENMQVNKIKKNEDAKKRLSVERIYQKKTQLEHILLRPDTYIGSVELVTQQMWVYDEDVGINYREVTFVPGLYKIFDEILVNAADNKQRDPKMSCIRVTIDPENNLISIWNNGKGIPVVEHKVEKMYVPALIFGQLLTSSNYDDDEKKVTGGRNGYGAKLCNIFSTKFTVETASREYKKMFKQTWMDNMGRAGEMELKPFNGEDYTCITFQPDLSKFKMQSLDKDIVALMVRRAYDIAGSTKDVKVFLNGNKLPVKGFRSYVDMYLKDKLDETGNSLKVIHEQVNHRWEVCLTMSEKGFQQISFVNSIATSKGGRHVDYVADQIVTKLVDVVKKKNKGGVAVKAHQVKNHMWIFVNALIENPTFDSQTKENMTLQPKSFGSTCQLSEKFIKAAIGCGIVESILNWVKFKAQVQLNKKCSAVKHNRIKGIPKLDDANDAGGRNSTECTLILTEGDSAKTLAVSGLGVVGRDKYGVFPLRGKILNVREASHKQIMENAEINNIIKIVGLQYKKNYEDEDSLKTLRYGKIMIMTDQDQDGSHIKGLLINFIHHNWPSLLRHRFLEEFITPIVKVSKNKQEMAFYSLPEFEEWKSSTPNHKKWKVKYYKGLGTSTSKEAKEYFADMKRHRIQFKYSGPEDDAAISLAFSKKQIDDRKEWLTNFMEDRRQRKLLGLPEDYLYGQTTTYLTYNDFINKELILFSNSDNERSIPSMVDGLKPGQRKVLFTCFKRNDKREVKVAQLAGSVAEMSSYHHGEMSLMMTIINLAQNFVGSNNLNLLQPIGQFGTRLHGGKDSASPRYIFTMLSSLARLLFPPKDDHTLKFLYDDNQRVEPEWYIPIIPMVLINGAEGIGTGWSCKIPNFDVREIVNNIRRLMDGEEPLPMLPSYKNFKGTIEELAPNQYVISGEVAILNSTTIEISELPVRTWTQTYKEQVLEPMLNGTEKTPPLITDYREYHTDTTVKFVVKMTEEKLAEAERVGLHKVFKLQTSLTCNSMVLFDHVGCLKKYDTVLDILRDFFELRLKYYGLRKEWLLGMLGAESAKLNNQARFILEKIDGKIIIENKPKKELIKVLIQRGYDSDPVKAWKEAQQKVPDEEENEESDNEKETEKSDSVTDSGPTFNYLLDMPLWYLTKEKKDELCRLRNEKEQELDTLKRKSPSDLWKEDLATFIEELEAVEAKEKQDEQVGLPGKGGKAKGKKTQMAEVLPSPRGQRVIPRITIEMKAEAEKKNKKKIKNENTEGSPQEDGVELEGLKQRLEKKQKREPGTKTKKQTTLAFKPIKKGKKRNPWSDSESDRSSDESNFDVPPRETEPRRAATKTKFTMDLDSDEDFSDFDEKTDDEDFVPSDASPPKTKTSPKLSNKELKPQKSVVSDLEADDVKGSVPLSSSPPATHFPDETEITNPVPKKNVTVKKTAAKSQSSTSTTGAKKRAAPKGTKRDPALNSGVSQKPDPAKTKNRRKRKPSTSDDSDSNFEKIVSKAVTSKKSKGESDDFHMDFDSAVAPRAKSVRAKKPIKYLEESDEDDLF

Row | SMILES | IC50 [µM]
1 | NC(=S)N1N=C(c2cccnc2)CC1c1cn(-c2ccccc2)nc1-c1ccccc1 (centres undefined) [5-(1,3-Diphenyl-1H-pyrazol-4-yl)-3-(pyridin-3-yl)-4,5-dihydropyrazole-1-carbothioamide (6a)] | 245
2 | CCOC(=O)C1C(=O)C=C(c2cn(-c3ccccc3)nc2-c2ccc(Cl)cc2)CC1c1cccnc1 (centres undefined) [Ethyl 4-(3-(4-chlorophenyl)-1-phenyl-1H-pyrazol-4-yl)-2-oxo-6-(pyridin-3-yl)cyclohex-3-enecarboxylate (5c)] | < 100
3 | CCOC(=O)C1C(=O)C=C(c2cn(-c3ccccc3)nc2-c2cccc(Br)c2)CC1c1cccnc1 (centres undefined) [Ethyl 4-(3-(3-bromophenyl)-1-phenyl-1H-pyrazol-4-yl)-2-oxo-6-(pyridin-3-yl)cyclohex-3-enecarboxylate (5d)] | < 100
4 | NC(=S)N1N=C(c2cccnc2)CC1c1cn(-c2ccccc2)nc1-c1ccc(Cl)cc1 (centres undefined) [5-(3-(4-Chlorophenyl)-1-phenyl-1H-pyrazol-4-yl)-3-(pyridin-3-yl)-4,5-dihydropyrazole-1-carbothioamide (6c)] | 406
5 | CCOC(=O)C1C(=O)C=C(c2cn(-c3ccccc3)nc2-c2ccc(OC)cc2)CC1c1cccnc1 (centres undefined) [Ethyl 4-(3-(4-methoxyphenyl)-1-phenyl-1H-pyrazol-4-yl)-2-oxo-6-(pyridin-3-yl)cyclohex-3-enecarboxylate (5i)] | 428
6 | CCOC(=O)C1C(=O)C=C(c2cn(-c3ccccc3)nc2-c2ccc([N+](=O)[O-])cc2)CC1c1cccnc1 (centres undefined) [Ethyl 4-(3-(4-nitrophenyl)-1-phenyl-1H-pyrazol-4-yl)-2-oxo-6-(pyridin-3-yl)cyclohex-3-enecarboxylate (5g)] | 256
7 | CCOC(=O)C1C(=O)C=C(c2cn(-c3ccccc3)nc2-c2ccc(C)cc2)CC1c1cccnc1 (centres undefined) [Ethyl 2-oxo-4-(1-phenyl-3-p-tolyl-1H-pyrazol-4-yl)-6-(pyridin-3-yl)cyclohex-3-enecarboxylate (5h)] | 395
8 | NC(=S)N1N=C(c2cccnc2)CC1c1cn(-c2ccccc2)nc1-c1ccc(F)cc1 (centres undefined) [5-(3-(4-Fluorophenyl)-1-phenyl-1H-pyrazol-4-yl)-3-(pyridin-3-yl)-4,5-dihydropyrazole-1-carbothioamide (6b)] | 272
9 | CCOC(=O)C1C(=O)C=C(c2cn(-c3ccccc3)nc2-c2cccc([N+](=O)[O-])c2)CC1c1cccnc1 (centres undefined) [Ethyl 4-(3-(3-nitrophenyl)-1-phenyl-1H-pyrazol-4-yl)-2-oxo-6-(pyridin-3-yl)cyclohex-3-enecarboxylate (5f)] | < 100
10 | CCOC(=O)C1C(=O)C=C(c2cn(-c3ccccc3)nc2-c2ccc(F)cc2)CC1c1cccnc1 (centres undefined) [Ethyl 4-(3-(4-fluorophenyl)-1-phenyl-1H-pyrazol-4-yl)-2-oxo-6-(pyridin-3-yl)cyclohex-3-enecarboxylate (5b)] | < 100
11 | NC(=S)N1N=C(c2cccnc2)CC1c1cn(-c2ccccc2)nc1-c1cccc([N+](=O)[O-])c1 (centres undefined) [5-(3-(3-Nitrophenyl)-1-phenyl-1H-pyrazol-4-yl)-3-(pyridin-3-yl)-4,5-dihydropyrazole-1-carbothioamide (6f)] | 445
12 | CCOC(=O)C1C(=O)C=C(c2cn(-c3ccccc3)nc2-c2ccccc2)CC1c1cccnc1 (centres undefined) [Ethyl 4-(1,3-diphenyl-1H-Pyrazol-4-yl)-2-oxo-6-(pyridin-3-yl)cyclohex-3-enecarboxylate (5a)] | 222
13 | NC(=S)N1N=C(c2cccnc2)CC1c1cn(-c2ccccc2)nc1-c1cccc(Br)c1 (centres undefined) [5-(3-(3-Bromophenyl)-1-phenyl-1H-pyrazol-4-yl)-3-(pyridin-3-yl)-4,5-dihydropyrazole-1-carbothioamide (6d)] | 457
14 | NC(=S)N1N=C(c2cccnc2)CC1c1cn(-c2ccccc2)nc1-c1ccc(Br)cc1 (centres undefined) [5-(3-(4-Bromophenyl)-1-phenyl-1H-pyrazol-4-yl)-3-(pyridin-3-yl)-4,5-dihydropyrazole-1-carbothioamide (6e)] | 703
